Experimental data reported in patent US20090035220A1, “HIGH THROUGHPUT SCREENING SYSTEM AND METHOD” (priority 2007, published 2009).

System: zebrafish larvae
Assay: Ammonia excretion as an indicator of locomotor response to electrical stimulus
Type: in vivo, Danio rerio
Conditions: MS-222 0.10 mg/mL in media; 30 larvae (4 dpf) per well; stimuli 3 uA, 50 msec, 30 times per hour for 12 hours; colorimetric ammonia assay; FIG. 7
Procedure: To create the graphs in the subsequent Examples, the initial conditions consisted of harvesting fertilized zebrafish eggs and placing them into embryo media and housed in an incubator with a constant temperature of 28.5° C. for the first several days of development, and throughout the course of experimentation. Embryo media consists of ultrapure water with 5 mM NaCl, 0.17 mM KCl, 0.33 mM CaCl2, 0.3 mm MgSO4 added. Embryo media was be used to make all final dilutions of test agents.
After the first 24 hours of incubation, the zebrafish larvae were treated with pronase solution (2 mg/ml in Embryo Medium) for several minutes to remove the larvae from their chorion. […] The 96-well plates were maintained in incubators at 28.5° C. and were removed from incubators only for testing or to refresh media.
Excretion of ammonia is a necessary consequence of protein breakdown. When proteins are converted to carbohydrates to provide energy, the amino group is removed and must be dealt with. In animals, the amino group is quickly oxidized to form ammonia. […] The concentration of ammonia excreted by the larvae was quantified by taking a sample of the media following the Examples and assaying it with a commercially available colorimetric assay kit (Ammonia Assay Kit #A1000, Sigma Biochemical) […]

SMILES: CCOC(=O)c1cccc(N)c1.CS(=O)(=O)O [MS-222]
- locomotor response of zebrafish to an electrical stimulus, based on excretion of ammonia: decreases the locomotor response
